Earlier results in patent US9040545B2, “Heterocyclyl pyrazolopyrimidine analogues as selective JAK inhibitors” (Cellzome Limited, priority 2010, dated 2015).

Tests used:
[1] = NOD mouse, literature; cited from earlier work
[2] = literature; cited from earlier work
[3] = literature; cited from earlier work; remark: listed apart in the source

Row | Compound | spontaneous autoimmune diabetes development [1] | severity of GVHD [2] | efficacy in an animal model of organ transplantation [3]
1 | COc1cc2ncnc(Nc3ccc(O)cc3)c2cc1OC [JANEX-1] | prevent spontaneous autoimmune diabetes development | attenuate the severity of GVHD | –
2 | C[C@@H]1CCN(C(=O)CC#N)C[C@@H]1N(C)c1ncnc2[nH]ccc12 [CP-690,550] | – | – | efficacy
